# According to patent publication EP0911319A1, “Malonic acid based matrix metalloproteinase inhibitors” (Roche Diagnostics GmbH, priority 1997, dated 1999):
# Read-outs that look alike come from different tables or passages of the source.
# Biological target: catalytic domain (Met80-Gly242) of human neutrophil collagenase (Homo sapiens, UniProt P22894)
# Assay type: biochemical
# Details: towards HNC, 8 nM enzyme, 10 µM DNP-Pro-Leu-Gly-Leu-Trp-Ala-D-Arg-NH2, 50 mM Tris/HCl pH 7.6, 25°C
# catalytic domain (Met80-Gly242) of human neutrophil collagenase, sequence (P22894 100-262): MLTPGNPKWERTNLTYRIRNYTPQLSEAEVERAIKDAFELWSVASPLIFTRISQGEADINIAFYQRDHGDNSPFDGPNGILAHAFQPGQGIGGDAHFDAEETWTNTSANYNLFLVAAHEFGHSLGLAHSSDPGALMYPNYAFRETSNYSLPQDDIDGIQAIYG
IC50 (read-out: IC50),Structure (SMILES),IC50
,"CC(C)CC(C(=O)NO)C(=O)NCCCc1ccccc1 (racemic) [Example 1, (±)-HONH-Mal(iBu)-NH-(CH2)3-C6H5]",620 nM
560 nM,"O=C(NO)C(CCc1ccccc1)C(=O)NCCCc1ccccc1 (racemic) [Example 3, (±)-HONH-Mal(CH2CH2-C6H5)-NH-(CH2)3-C6H5]",
640 nM,"O=C(NO)C(Cc1ccccc1)C(=O)NCCCc1ccccc1 (racemic) [Example 4, (±)-HONH-Mal(Bn)-NH-(CH2)3-C6H5]",
300 nM,"CCCCCCCCNC(=O)C(CC(C)C)C(=O)NO (racemic) [Example 2, (±)-HONH-Mal(iBu)-NH-(CH2)7-CH3]",
